In assay [1] the target is T1, human Cereblon WT GST-tagged protein (Homo sapiens, UniProt Q96SW2).
T1 construct: purchased CISBIO 64BDCRBNPEH
The experiment in a line: CRBN-binding affinity, HTRF (CEREBLON BINDING kit). The note with it: for inhibition at 0.5 µM: read-out: Inhibition Rate at 0.5 µM (%); for inhibition at 2 µM: read-out: Inhibition Rate at 2 µM (%). The essentials: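 Binding to GST-tagged Cereblon was probed by HTRF tracer displacement (thalidomide-red acceptor, anti-GST Eu donor), with compounds present at final 2 µM and 0.5 µM.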
For orientation: In TR-FRET formats the signal depends on donor and acceptor labels being close together.

Assay [2] deals with MV-4-11. Briefly: Tumor cell proliferation inhibition (CellTiter-Meiluncell Luminescent Cell Viability Assay). The assay is classed as cell-based. To be noted: Homo sapiens, 96 hours; for inhibition at 0.01 µM: MV4-11, 10 nM, read-out: Inhibition Rate at 10 nM (%); for inhibition at 0.5 µM: MV4-11, 500 nM, read-out: Inhibition Rate at 500 nM (%). On the procedure: (§1) The tumor cells used herein were cultured in a cell culture medium listed in table 3 at 37°C in an incubator with 5% CO2. Prior to experimentation, all cell lines used were correctly identified by STR profiling, and tested negative for mycoplasma contamination using a mycoplasma detection kit through routine screenings. Table 3. Tumor cells and cell culture medium used in the present disclosure
(§2) The IC50 values of the compounds of the present disclosure (including the compounds in Table 1, Table 2, and Examples) were determined using the CellTiter-Meiluncell Luminescent Cell Viability Assay Kit from Dalian Meilun Biotech Co., Ltd. The detailed procedure is as follows: Tumor cells were seeded in 96-well cell culture plates at the densities specified in Table 4. On the following day, the test compounds of the present disclosure were subjected to serial dilution. […] Subsequently, 0.5 µL of the test compound dilution was transferred into the 96-well plate containing the cells, with each well containing 100 µL of cell culture medium. […] Into the 96-well plate, the diluted test compounds and corresponding detection reagents were added, resulting in final test compound concentrations of 500 nM and 10 nM, respectively. The experimental procedure is described below using the diluted 2 µM test compound as an example.
(§3) 0.5 µL of the aforementioned diluted compound of the present disclosure (including the compounds in Table 1, Table 2, and Examples) was added to the seeded cells in 100 µL of medium, yielding a final test compound concentration of 10 nM. After the cells were treated with the compounds of the present disclosure for a specified period, the cell viability assay reagent was added to the culture medium according to the kit's instructions to determine cell viability. […] All controls were treated using the same procedure as the compounds of the present disclosure. […] Seeding protocol and treatment time for tumor cells

Assay [3] deals with MM.1S. Described as above. The assay is classed as cell-based. To be noted: Homo sapiens, MM1.S; for inhibition at 0.01 µM: read-out: Inhibition Rate at 10 nM (%); for inhibition at 0.5 µM: read-out: Inhibition Rate at 500 nM (%). On the procedure: as §1, §2, §3
Assay [4] has as its system RPMI-8226. The description is as above. The assay is classed as cell-based. The note with it: Homo sapiens, 96 hours; for inhibition at 0.01 µM: 10 nM, read-out: Inhibition Rate at 10 nM (%); for inhibition at 0.5 µM: 500 nM, read-out: Inhibition Rate at 500 nM (%). The procedure: as §1, §2, §3
The test system of assay [5] is MCF-7. The assay is described as above. Format: cell-based. To be noted: Homo sapiens, 96 hours, Table I-2, ALK inhibitors. The procedure:
as §1, §2, §3

The test system of assay [6] is SW620. The assay is described as above. The assay is classed as cell-based. The note with it: Homo sapiens, 96 hours, Table I-10, BCR-ABL inhibitors; for inhibition at 0.01 µM: SW-620, 10 nM, read-out: Inhibition Rate at 10 nM (%); for inhibition at 0.5 µM: SW-620, 500 nM, read-out: Inhibition Rate at 500 nM (%). The procedure: as §1, §2, §3
[7] abbreviates: MM.1S, 10 nM, 96 hours, Table I-11, RSK inhibitors.
The mark [8] stands for this setting: MM.1S, 500 nM, 96 hours, Table I-11, RSK inhibitors.
Setting [9] is: Table I-8, SMARCA2/4 inhibitors.

Where two headings read alike, the source gives them in different places.

T1 sequence (Q96SW2 whole entry): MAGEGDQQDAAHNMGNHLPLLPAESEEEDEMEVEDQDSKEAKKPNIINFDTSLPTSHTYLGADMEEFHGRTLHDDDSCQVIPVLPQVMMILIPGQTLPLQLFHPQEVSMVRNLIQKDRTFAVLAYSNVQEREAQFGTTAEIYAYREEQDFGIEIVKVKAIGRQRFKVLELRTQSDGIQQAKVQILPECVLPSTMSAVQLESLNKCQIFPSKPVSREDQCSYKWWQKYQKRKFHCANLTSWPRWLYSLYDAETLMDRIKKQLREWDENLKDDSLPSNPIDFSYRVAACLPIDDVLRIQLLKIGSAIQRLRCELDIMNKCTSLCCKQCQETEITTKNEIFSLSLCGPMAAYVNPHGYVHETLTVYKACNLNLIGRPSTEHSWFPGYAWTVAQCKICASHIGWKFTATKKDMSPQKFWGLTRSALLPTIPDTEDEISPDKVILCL

Turning to `C[C@@H]1CNC(=O)c2cc3ccc(C(=O)Nc4cnn(Cc5ccc(N6CCC(N7CCN(Cc8ccc9c(c8)CN(C8CCC(=O)NC8=O)C9=S)CC7)CC6)cc5)c4)nc3n21` (stereo partly drawn) [GT-08778, (9R)-N-(1-(4-(4-(4-((2-(2,6-dioxopiperidin-3-yl)-1-thioxoisoindolin-5-yl)methyl)piperazin-1-yl)piperidin-1-yl)benzyl)-1H-pyrazol-4-yl)-9-methyl-6-oxo-6,7,8,9-tetrahydropyrido[3',2':4,5]pyrrolo[1,2-a]pyrazine-2-carboxamide], the inhibition (commonly the change of the read-out against control, counted positive when it falls) at 0.5 µM in assay [1] was 80 to 100%; in assay [2] (Table I-11, RSK inhibitors), 80 to 100%; in assay [3] (setting [8]), 80 to 100%; in assay [4] (Table I-11, RSK inhibitors), 50 to 60%. The inhibition at 2 µM in assay [1] lay within 80 to 100%. Further, the inhibition at 0.01 µM in assay [2] (Table I-11, RSK inhibitors) lay in the range of 50 to 60%; in assay [3] (setting [7]), 40 to 50%; in assay [4] (Table I-11, RSK inhibitors), 10 to 20%.

As to `C[C@@H]1CNC(=O)c2cc3ccc(C(=O)Nc4cnn(Cc5ccc(N6CCN(Cc7ccc8c(c7)CN(C7CCC(=O)NC7=O)C8=S)CC6)cc5)c4)nc3n21` (stereo partly drawn) [GT-08777, (9R)-N-(1-(4-(4-((2-(2,6-dioxopiperidin-3-yl)-1-thioxoisoindolin-5-yl)methyl)piperazin-1-yl)benzyl)-1H-pyrazol-4-yl)-9-methyl-6-oxo-6,7,8,9-tetrahydropyrido[3',2':4,5]pyrrolo[1,2-a]pyrazine-2-carboxamide], the inhibition at 0.5 µM in assay [1] was 80 to 100%; in assay [2] (Table I-11, RSK inhibitors), 60 to 70%; in assay [3] (setting [8]) it was 50 to 60%; in assay [4] (Table I-11, RSK inhibitors), 40 to 50%. For the same molecule, the inhibition at 2 µM in assay [1] lay in the range of 60 to 80%. Besides, the inhibition at 0.01 µM lay in the range of 20 to 30% in assay [2] (Table I-11, RSK inhibitors); 20 to 30% in assay [3] (setting [7]); 0 to 5% in assay [4] (Table I-11, RSK inhibitors).

Take `COc1cc(N2CCN(Cc3cccc4c3CN(C3CCC(=O)NC3=O)C4=S)CC2)ccc1Nc1ncc(Cl)c(Nc2ccccc2P(C)(C)=O)n1` (stereo not shown) [GT-08677, 3-(4-((4-(4-((5-chloro-4-((2-(dimethylphosphoryl)phenyl)amino)pyrimidin-2-yl)amino)-3-methoxyphenyl)piperazin-1-yl)methyl)-1-thioxoisoindolin-2-yl)piperidine-2,6-dione]: the inhibition at 0.5 µM in assay [1] was in the range of 53 to 60%; in assay [2] (Table I-2, ALK inhibitors), 60 to 70%; in assay [5] (MCF7, 500 nM, read-out: Inhibition Rate at 500 nM (%)), 30 to 40%; in assay [3] (MM.1S, 500 nM, 96 hours, Table I-2, ALK inhibitors), 20 to 30%. In addition, the inhibition at 2 µM in assay [1] was 80 to 100%. The inhibition at 0.01 µM in assay [2] (Table I-2, ALK inhibitors) is 0 to 10%; in assay [5] (MCF7, 10 nM, read-out: Inhibition Rate at 10 nM (%)) it was -5 to 0%; in assay [3] (MM.1S, 10 nM, 96 hours, Table I-2, ALK inhibitors) it was 10 to 20%.

As to `Cc1ccc(C(=O)Nc2ccc(CN3CCN(Cc4cccc5c4CN(C4CCC(=O)NC4=O)C5=S)CC3)c(C(F)(F)F)c2)cc1C#Cc1cnc2cccnn12` (stereo not shown) [GT-08773, N-(4-((4-((2-(2,6-dioxopiperidin-3-yl)-1-thioxoisoindolin-4-yl)methyl)piperazin-1-yl)methyl)-3-(trifluoromethyl)phenyl)-3-(imidazo[1,2-b]pyridazin-3-ylethynyl)-4-methylbenzamide], the inhibition at 0.5 µM in assay [1] was in the range of 30 to 40%; in assay [2] (Table I-10, BCR-ABL inhibitors), 80 to 100%; in assay [6], 70 to 80%; in assay [3] (MM.1S, 500 nM, 96 hours, Table I-10, BCR-ABL inhibitors) it was 80 to 100%; in assay [4] (Table I-10, BCR-ABL inhibitors), 60 to 70%. For the same molecule, the inhibition at 2 µM in assay [1] lay within 60 to 80%. For the same molecule, the inhibition at 0.01 µM in assay [2] (Table I-10, BCR-ABL inhibitors) lay within 30 to 40%; in assay [6], 0 to 5%; in assay [3] (MM.1S, 10 nM, 96 hours, Table I-10, BCR-ABL inhibitors), 10 to 20%; in assay [4] (Table I-10, BCR-ABL inhibitors), 5 to 10%.

In the case of `Nc1nnc(-c2ccccc2O)cc1N1CCNCC1` [GTC00645], the values for the inhibition at 0.01 µM in assay [2] (setting [9]), in assay [3] (96 h) and in assay [4] (setting [9]) were 10 to 15%, 15 to 20% and -5 to 0%, respectively. Besides, the figures for the inhibition at 0.5 µM in assay [2] (setting [9]), in assay [3] (96 h) and in assay [4] (setting [9]) were 10 to 15%, 15 to 20% and -5 to 0%, respectively.

As for `Cc1cc(S(=O)(=O)N2CCN(Cc3ccc4c(c3)CN(C3CCC(=O)NC3=O)C4=S)CC2)ccc1Nc1ncc(Br)c(Nc2cccc(F)c2C(N)=O)n1` (stereo not shown) [GT-08714, 2-((5-bromo-2-((4-((4-((2-(2,6-dioxopiperidin-3-yl)-1-thioxoisoindolin-5-yl)methyl)piperazin-1-yl)sulfonyl)-2-methylphenyl)amino)pyrimidin-4-yl)amino)-6-fluorobenzamide], the inhibition at 0.5 µM was 53 to 60% in assay [1]; 50 to 60% in assay [3] (MM.1S, 500 nM, 96 hours, Table I-8, SMARCA2/4 inhibitors); 40 to 50% in assay [4] (setting [9]). Further, in assay [1], the inhibition at 2 µM was 60 to 80%. The inhibition at 0.01 µM in assay [3] (MM.1S, 10 nM, 96 hours, Table I-8, SMARCA2/4 inhibitors) lay in the range of 30 to 40%; in assay [4] (setting [9]) it was 30 to 40%.

For `Cc1ccc(NC(=O)c2ccc(CN3CCN(C)CC3)cc2)cc1Nc1nccc(-c2cccnc2)n1` [imatinib], the inhibition at 0.01 µM in assay [2] (Table I-10, BCR-ABL inhibitors) fell in the range of 0 to 5%; in assay [6] it was 5 to 10%; in assay [4] (Table I-10, BCR-ABL inhibitors), 5 to 10%. Besides, the inhibition at 0.5 µM lay within 0 to 5% in assay [2] (Table I-10, BCR-ABL inhibitors); 10 to 20% in assay [6]; 10 to 20% in assay [4] (Table I-10, BCR-ABL inhibitors).

For `CC(C)CCN1c2nc(Nc3cc(F)c(O)c(F)c3)ncc2N(C)C(=O)C1C` (stereo not shown) [BI-D1870, reference compound], the inhibition at 0.01 µM is 0 to 5% in assay [2] (Table I-11, RSK inhibitors); 114% in assay [3] (96 h); 10 to 20% in assay [4] (Table I-11, RSK inhibitors). For the same molecule, the inhibition at 0.5 µM in assay [2] (Table I-11, RSK inhibitors) fell in the range of 20 to 30%; in assay [3] (96 h) it was 20 to 30%; in assay [4] (Table I-11, RSK inhibitors) it was 10 to 20%.
